Experimental data reported in ChEMBL document CHEMBL3351221, “Synthetic derivatives of aromatic abietane diterpenoids and their biological activities” (Eur J Med Chem, 2014).
Values after ≈ are worked out from the molar mass of the structure shown.

Columns and labels:
MRC5 = test: Cytotoxicity against human MRC5 cells; format: cell-based
AGS = test: Cytotoxicity against human AGS cells; format: cell-based
Mus musculus [1] = test: Gastroprotective activity in mouse assessed as reduction in HCl/EtOH-induced gastric lesions at 20 mg/kg; format: functional; details: Stomach
SMMC-7721 = test: Cytotoxicity against human SMMC7721 cells; format: functional, cell-based
[2] = Cytotoxicity against human Hey-1B cells; format: functional, cell-based
[3] = Cytotoxicity against human PC3 cells; format: functional, cell-based; details: PC-3
[4] = Cytotoxicity against human HL60 cells; format: functional, cell-based; details: HL-60
Escherichia coli = test: Antimicrobial activity against Escherichia coli; format: functional
Staphylococcus aureus = test: Antimicrobial activity against Staphylococcus aureus; format: functional
Mus musculus [5] = test: Gastroprotective activity in mouse assessed as reduction in HCl/EtOH-induced gastric lesions at 100 mg/kg; format: functional; details: Stomach
MCF7 = test: Cytotoxicity against human MCF7 cells; format: functional, cell-based
C6 = test: Cytotoxicity against rat C6 cells; format: functional, cell-based
A549 = test: Cytotoxicity against human A549 cells; format: functional, cell-based

CC(=O)OC[C@H]1O[C@@H](Oc2cc3c(cc2C(C)C)CC[C@H]2C(C)(C)CCC[C@]32C)[C@H](OC(C)=O)[C@@H](OC(C)=O)[C@@H]1OC(C)=O
IC50 (MRC5): > 1000 µM | IC50 (AGS): > 1000 µM | inhibition in vivo at 20 mg/kg (Mus musculus [1]): 72%

CC(C)c1ccc2c(c1)CC[C@H]1[C@](C)(NC(=O)Nc3cc(F)cc(F)c3)CCC[C@]21C
IC50 (SMMC-7721): 8.8 µM

CC(C)c1cc2c(cc1[N+](=O)[O-])[C@@]1(C)CCC[C@@](C)(CNC(=O)c3ccccc3Cl)[C@@H]1CC2
IC50 [2]: 11.3 µg/mL (≈ 24.1 µM) | IC50 [3]: 5.7 µg/mL (≈ 12.2 µM)

COC(=O)[C@H](C)NC(=O)[C@]1(C)CCC[C@]2(C)c3ccc(C(C)C)cc3CC[C@@H]12
IC50 [4]: 2.3 µM

CC(C)c1ccc2c(c1)CC[C@H]1[C@](C)(C[N+](C)(C)C)CCC[C@]21C.COS(=O)(=O)[O-]
MIC (Escherichia coli): 250 µg/mL | MIC (Staphylococcus aureus): 7.81 µg/mL

CC(C)c1ccc2c(c1)CC[C@H]1[C@](C)(C/N=C/c3ccc(F)cc3)CCC[C@]21C
IC50 (SMMC-7721): 44.5 µM

CC(C)c1ccc2c(c1)CC[C@H]1[C@](C)(NC(=O)Nc3ccc(F)cc3)CCC[C@]21C
IC50 (SMMC-7721): 8.8 µM

CC(=O)NC[C@]1(C)CCC[C@]2(C)c3cc(/N=C/c4cccc(O)c4)c(C(C)C)cc3CC[C@@H]12
IC50 [2]: 15 µg/mL (≈ 33.6 µM)

CC(C)c1ccc2c(c1)CC[C@H]1[C@](C)(C[N+](CCO)(CCO)Cc3ccccc3)CCC[C@]21C.[Cl-]
MIC (Escherichia coli): 250 µg/mL | MIC (Staphylococcus aureus): 7.81 µg/mL

CC(C)c1ccc2c(c1)CC[C@H]1[C@](C)(CNCc3ccccc3)CCC[C@]21C.Cl
MIC (Escherichia coli): 250 µg/mL | MIC (Staphylococcus aureus): 7.81 µg/mL

COc1ccc(NC(=O)[C@]2(C)CCC[C@]3(C)c4ccc(C(C)C)cc4CC[C@@H]23)cc1
inhibition in vivo at 100 mg/kg (Mus musculus [5]): 67% | IC50 (MRC5): > 1000 µM | IC50 (AGS): > 1000 µM

COC(=O)[C@H](CO)NC(=O)[C@]1(C)CCC[C@]2(C)c3ccc(C(C)C)cc3CC[C@@H]12
IC50 [4]: 2.3 µM

COC(=O)[C@H](Cc1ccccc1)NC(=O)[C@]1(C)CCC[C@]2(C)c3ccc(C(C)C)cc3CC[C@@H]12
IC50 [4]: 2.3 µM

CCCCCCCCCCCCCCCC(=O)Oc1cc2c(cc1C(C)C)CC[C@H]1C(C)(C)CCC[C@]21C
IC50 (MRC5): > 1000 µM | inhibition in vivo at 20 mg/kg (Mus musculus [1]): 50%

CC(C)c1cc2c(cc1O[C@@H]1O[C@H](CO)[C@@H](O)[C@H](O)[C@H]1O)[C@@]1(C)CCCC(C)(C)[C@@H]1CC2
IC50 (MRC5): 19 µM | IC50 (AGS): 18 µM

CC(C)c1cc2c(cc1[N+](=O)[O-])[C@@]1(C)CCC[C@@](C)(CNC(=O)c3ccccc3)[C@@H]1CC2
IC50 [2]: 11.3 µg/mL (≈ 26 µM) | IC50 [3]: 5.7 µg/mL (≈ 13.1 µM)

CC(C)c1cc2c(cc1[N+](=O)[O-])[C@@]1(C)CCC[C@@](C)(CNC(=O)c3ccc([N+](=O)[O-])cc3)[C@@H]1CC2
IC50 [2]: 11.3 µg/mL (≈ 23.6 µM) | IC50 [3]: 5.7 µg/mL (≈ 11.9 µM)

CC(C)c1ccc2c(c1)CC[C@H]1[C@](C)(C[N+](C)(CCO)CCO)CCC[C@]21C.COS(=O)(=O)[O-]
MIC (Escherichia coli): 250 µg/mL | MIC (Staphylococcus aureus): 7.81 µg/mL

CC(C)c1ccc2c(c1)CC[C@H]1[C@](C)(C(=O)Nc3ccc(I)cc3)CCC[C@]21C
inhibition in vivo at 100 mg/kg (Mus musculus [5]): 67% | IC50 (MRC5): > 1000 µM | IC50 (AGS): > 1000 µM

CC(C)c1ccc2c(c1)CC[C@H]1[C@](C)(NC(=O)N3CCCCC3)CCC[C@]21C
IC50 (SMMC-7721): 8.8 µM

COc1ccc(NC(=O)[C@]2(C)CCC[C@]3(C)c4ccc(C(C)C)cc4CC[C@@H]23)c(OC)c1
inhibition in vivo at 100 mg/kg (Mus musculus [5]): 67% | IC50 (MRC5): > 1000 µM | IC50 (AGS): > 1000 µM

CC(C)c1ccc2c(c1)CC[C@H]1C(C)(C)CCC[C@]21C
inhibition in vivo at 20 mg/kg (Mus musculus [1]): 69%

Cc1cc(C)cc(NC(=O)[C@]2(C)CCC[C@]3(C)c4ccc(C(C)C)cc4CC[C@@H]23)c1
inhibition in vivo at 100 mg/kg (Mus musculus [5]): 67% | IC50 (MRC5): > 1000 µM | IC50 (AGS): > 1000 µM

Cc1ccc(NC(=O)[C@]2(C)CCC[C@]3(C)c4ccc(C(C)C)cc4CC[C@@H]23)cc1
inhibition in vivo at 100 mg/kg (Mus musculus [5]): 67% | IC50 (MRC5): > 1000 µM | IC50 (AGS): > 1000 µM

CCC(=O)Oc1cc2c(cc1C(C)C)CC[C@H]1C(C)(C)CCC[C@]21C
IC50 (MRC5): 19 µM | IC50 (AGS): 18 µM

COc1ccc(/C=N/C[C@]2(C)CCC[C@]3(C)c4ccc(C(C)C)cc4CC[C@@H]23)c(O)c1
IC50 (SMMC-7721): 6.65 µM | IC50 (MCF7): 10.7 µM | IC50 (C6): 0.81 µM | IC50 (A549): 0.75 µM

CCCCCCCC/C=C/CCCCCCCC(=O)Oc1cc2c(cc1C(C)C)CC[C@H]1C(C)(C)CCC[C@]21C
IC50 (MRC5): > 1000 µM | inhibition in vivo at 20 mg/kg (Mus musculus [1]): 50%

CC(=O)NC[C@]1(C)CCC[C@]2(C)c3cc(/N=C/c4cc(Br)cc(Br)c4O)c(C(C)C)cc3CC[C@@H]12
IC50 [2]: 15 µg/mL (≈ 24.8 µM)

CC(C)c1ccc2c(c1)CC[C@H]1[C@](C)(C[N+](CCO)(CCO)CCO)CCC[C@]21C.[Cl-]
MIC (Escherichia coli): 250 µg/mL | MIC (Staphylococcus aureus): 7.81 µg/mL

CC(C)c1cc2c(cc1OC(=O)c1cc([N+](=O)[O-])cc([N+](=O)[O-])c1)[C@@]1(C)CCCC(C)(C)[C@@H]1CC2
IC50 (MRC5): > 1000 µM | IC50 (AGS): 29 µM

CC(C)c1cc2c(cc1OC(=O)c1cccnc1)[C@@]1(C)CCCC(C)(C)[C@@H]1CC2
IC50 (MRC5): > 1000 µM | IC50 (AGS): 22 µM | inhibition in vivo at 20 mg/kg (Mus musculus [1]): 71%

COC(=O)[C@@H](NC(=O)[C@]1(C)CCC[C@]2(C)c3ccc(C(C)C)cc3CC[C@@H]12)C(C)C
IC50 [4]: 2.3 µM

CC(C)c1cc2c(cc1OC(=O)CCCc1c[nH]c3ccccc13)[C@@]1(C)CCCC(C)(C)[C@@H]1CC2
IC50 (MRC5): > 1000 µM | inhibition in vivo at 20 mg/kg (Mus musculus [1]): 50%

CC(C)c1ccc2c(c1)CC[C@H]1[C@](C)(C(=O)Nc3cccc([N+](=O)[O-])c3)CCC[C@]21C
inhibition in vivo at 100 mg/kg (Mus musculus [5]): 67% | IC50 (MRC5): > 1000 µM | IC50 (AGS): > 1000 µM

CC(C)c1ccc2c(c1)CC[C@H]1[C@](C)(C/N=C/c3ccc(C(F)(F)F)cc3)CCC[C@]21C
IC50 (SMMC-7721): 6.65 µM | IC50 (MCF7): 10.7 µM | IC50 (C6): 0.81 µM | IC50 (A549): 0.75 µM

CC(Cl)C(=O)Oc1cc2c(cc1C(C)C)CC[C@H]1C(C)(C)CCC[C@]21C (some centres undefined)
IC50 (MRC5): 19 µM | IC50 (AGS): 18 µM | inhibition in vivo at 20 mg/kg (Mus musculus [1]): 76%

CC(C)c1cc2c(cc1OC(=O)Cc1c[nH]c3ccccc13)[C@@]1(C)CCCC(C)(C)[C@@H]1CC2
IC50 (MRC5): > 1000 µM | IC50 (AGS): 12 µM | inhibition in vivo at 20 mg/kg (Mus musculus [1]): 50%

CC(=O)Oc1cc2c(cc1C(C)C)CC[C@H]1C(C)(C)CCC[C@]21C
IC50 (MRC5): 19 µM | IC50 (AGS): 18 µM

CC(C)c1ccc2c(c1)CC[C@H]1[C@](C)(C(=O)Nc3ccccc3Cl)CCC[C@]21C
inhibition in vivo at 100 mg/kg (Mus musculus [5]): 67% | IC50 (MRC5): > 1000 µM | IC50 (AGS): > 1000 µM

COc1ccc(/C=N/c2cc3c(cc2C(C)C)CC[C@H]2[C@](C)(CNC(C)=O)CCC[C@]32C)cc1
IC50 [2]: 15 µg/mL (≈ 32.6 µM)

CC(C)c1cc2c(cc1O[C@@H]1O[C@H](CO)[C@H](O)[C@H](O)[C@H]1O)[C@@]1(C)CCCC(C)(C)[C@@H]1CC2
IC50 (MRC5): 19 µM | IC50 (AGS): 18 µM | inhibition in vivo at 20 mg/kg (Mus musculus [1]): 61%

Cc1c(C(=O)Oc2cc3c(cc2C(C)C)CC[C@H]2C(C)(C)CCC[C@]32C)oc2ccccc12
IC50 (MRC5): > 1000 µM | inhibition in vivo at 20 mg/kg (Mus musculus [1]): 50%

CC(=O)NC[C@]1(C)CCC[C@]2(C)c3cc(/N=C/c4cc(O)ccc4O)c(C(C)C)cc3CC[C@@H]12
IC50 [2]: 15 µg/mL (≈ 32.4 µM)

CC(C)c1ccc2c(c1)CC[C@H]1[C@](C)(C/N=C/c3cccc(F)c3)CCC[C@]21C
IC50 (SMMC-7721): 6.65 µM | IC50 (MCF7): 10.7 µM | IC50 (C6): 0.81 µM | IC50 (A549): 0.75 µM

COc1ccc(/C=N/C[C@]2(C)CCC[C@]3(C)c4ccc(C(C)C)cc4CC[C@@H]23)cc1
IC50 (SMMC-7721): 6.65 µM | IC50 (MCF7): 10.7 µM | IC50 (C6): 0.81 µM | IC50 (A549): 0.75 µM

CCC(C)[C@H](NC(=O)[C@]1(C)CCC[C@]2(C)c3ccc(C(C)C)cc3CC[C@@H]12)C(=O)OC (some centres undefined)
IC50 [4]: 2.3 µM

CC(C)c1ccc2c(c1)CC[C@H]1[C@](C)(CNCCO)CCC[C@]21C.Cl
MIC (Escherichia coli): 250 µg/mL | MIC (Staphylococcus aureus): 7.81 µg/mL

C=CC(=O)Oc1cc2c(cc1C(C)C)CC[C@H]1C(C)(C)CCC[C@]21C
IC50 (MRC5): 19 µM | IC50 (AGS): 18 µM | inhibition in vivo at 20 mg/kg (Mus musculus [1]): 67%

CC(C)c1cc2c(cc1O)[C@@]1(C)CCCC(C)(C)[C@@H]1CC2 [FERRUGINOL]
IC50 (MRC5): 19 µM | IC50 (AGS): 18 µM

COC(=O)C[C@H](NC(=O)[C@]1(C)CCC[C@]2(C)c3ccc(C(C)C)cc3CC[C@@H]12)C(=O)OC
IC50 [4]: 2.3 µM

CC(C)c1cc2c(cc1OC=O)[C@@]1(C)CCCC(C)(C)[C@@H]1CC2
IC50 (MRC5): 19 µM | IC50 (AGS): 18 µM

CC(=O)NC[C@]1(C)CCC[C@]2(C)c3cc(/N=C/c4ccc(O)cc4O)c(C(C)C)cc3CC[C@@H]12
IC50 [2]: 15 µg/mL (≈ 32.4 µM)
